Test results from patent publication US10927117B2 (BEIGENE SWITZERLAND GMBH, priority 2016, dated 2021).

Legend:
[1] = Metabolism in human liver microsomes (responsible CYP isoform)
[2] = system: advanced B cell malignancies; test: Phase 1 trial in patients with advanced B cell malignancies (cutoff Oct. 19, 2015); assay type: in vivo, human
From the text: A total of 39 patients, including all 25 patients from the initial dose-escalation component and 14 patients from the ongoing dose-expansion component were enrolled.
As of Oct. 19, 2015, the cutoff date for data analysis, 29 objective responses have been observed, including 3 complete responses (CRs), 1 very good partial response (VGPR), and 25 partial responses (PRs). 31 of the 39 patients remain on study treatment, free of progression, including all patients to date who have achieved an objective response.

[3] = Tissue distribution; assay type: in vivo
[4] = system: rituximab-induced antigen-dependent cell-mediated cytotoxicity (ADCC); test: Rituximab-induced ADCC inhibition; assay type: cell-based
[5] = system: TMD8 cells (ABC type diffuse large B-cell lymphoma cell line); test: Tumor cell proliferation, CellTiter-Glo, TMD-8; assay type: cell-based; conditions: Homo sapiens, TMD8, 144 h; TMD-8 cell line, DLBCL(ABC); 6-day exposure; mean of 3 independent assays; read-out: Potency IC50
Experimental: (§1) 3 MCL cell lines (Rec-1, Mino and JEKO-1) and an ABC type diffuse large B-cell lymphoma cell line (TMD8) were used in this study. Cell lines were maintained in RPMI-1640 supplemented with 10% fetal bovine serum/FBS (Thermo Scientific); 100 units/ml penicillin (Gibco) and 0.1 mg/ml streptomycin (Gibco) and kept at 37° C. in a humidified atmosphere of 5% CO2 in air. Cell lines were reinstated from frozen stocks that were laid down within 30 passages from the original cells purchased.
(§2) The growth-inhibitory activity of compounds in Rec-1, Mino, JEKO-1 and TMD-8 cells was determined using CellTiter-Glo luminescent cell viability assay (Promega). The number of cells seeded per well of a 96-well plate was optimized for each cell line to ensure logarithmic growth over 6 days treatment period. Cells were treated in triplicate with a 10-point dilution series. […] Mixture was mixed on an orbital shaker for 2 minutes to allow cell lysis, followed by 10 minutes incubation at room temperature to allow development and stabilization of luminescent signal, which corresponded to quantity of ATP and thus the quantity of metabolically active cells. Luminescent signal was measured using PHERAstar FS reader (BMG Labtech). IC50 values for cell viability were determined with GraphPad Prism software and were the mean of 3 independent assays.

[6] = system: JEKO-1 cells (MCL cell line); test: Tumor cell proliferation, CellTiter-Glo, JEKO-1; assay type: cell-based; conditions: Homo sapiens, 144 h, JEKO-1 cell line, 6-day exposure, read-out: Potency IC50
Experimental: as §1, §2

[7] = Hygroscopic test (DVS); assay type: physicochemical; conditions: 80% RH, 25° C.
Experimental: The dynamic vapor sorption (DVS) plots shown as in FIG. 6 was collected a SMS (Surface Measurement Systems) DVS Intrinsic. The DVS parameters used includes: temperature (25° C.); dm/dt (0.002%/min); Min. dm/dt stability duration (10 min); Max. equilibrium time (180 min); RH range (0% RH to 95% RH); RH step size(10% RH from 0% RH to 90% RH, 5% RH from 90% RH to 95% RH).

[8] = Burkitt's-like Lymphoma patients
[9] = Burkitt's-like Lymphoma patients, number of patients/total
[10] = Chronic Lymphocytic Leukemia patients
[11] = Chronic Lymphocytic Leukemia patients, number of patients/total
[12] = DLBCL patients, number of patients/total
[13] = Hairy Cell Leukemia patients, number of patients/total
[14] = Indolent NHL patients, number of patients/total
[15] = Mantle Cell Lymphoma patients, number of patients/total
[16] = Waldenström's Macroglobulinemia patients
[17] = Waldenström's Macroglobulinemia patients, number of patients/total

C=CC(=O)N1CCC([C@@H]2CCNc3c(C(N)=O)c(-c4ccc(Oc5ccccc5)cc4)nn32)CC1 [Compound 1, (S)-7-(1-acryloylpiperidin-4-yl)-2-(4-phenoxyphenyl)-4,5,6,7-tetra-hydropyrazolo[1,5-a]pyrimidine-3-carboxamide]
major CYP isoform responsible for the metabolism [1]: CYP3A | patients who discontinued ([2]; 6 disease progression, 2 adverse events related to underlying malignancy): 8 | exacerbation or new event of atrial fibrillation/flutter (AF) ([2]; 6 patients with baseline history of AF): no exacerbation or new event of AF | complete responses (CRs) ([2]; 39 patients enrolled): 3 | partial responses (PRs) ([2]; 39 patients enrolled): 25 | very good partial response (VGPR) ([2]; 39 patients enrolled): 1 | objective responses ([2]; 39 patients enrolled, cutoff Oct. 19, 2015): 29 | Best Response CR [2, 8]: (0%) | Best Response PD [2, 8]: (100%) | Best Response PR [2, 8]: (0%) | Best Response SD [2, 8]: (0%) | ORR (CR + PR) [2, 8]: (0%) | Best Response CR [2, 9]: 0/1 | Best Response PD [2, 9]: 1/1 | Best Response PR [2, 9]: 0/1 | Best Response SD [2, 9]: 0/1 | ORR (CR + PR) [2, 9]: 0/1 | Best Response PD [2, 10]: (0%) | Best Response SD [2, 10]: (7%) | ORR (CR + PR) [2, 10]: (93%) | Best Response CR ([2]; Chronic Lymphocytic Leukemia patients, cutoff Oct. 19, 2015): (0%) | Best Response PR ([2]; Chronic Lymphocytic Leukemia patients, includes five patients with lymphocytosis at latest assessment): (93%) | Best Response PD ([2]; Chronic Lymphocytic Leukemia patients, number of patients): 0 | Best Response SD [2, 11]: 1/14 | ORR (CR + PR) [2, 11]: 13/14 | Best Response CR ([2]; Chronic Lymphocytic Leukemia patients, number of patients/total, cutoff Oct. 19, 2015): 0/14 | Best Response PR ([2]; Chronic Lymphocytic Leukemia patients, number of patients/total, includes five patients with lymphocytosis at latest assessment): 13/14^1 | Best Response CR ([2]; DLBCL patients): (25%) | Best Response PD ([2]; DLBCL patients): (75%) | Best Response PR ([2]; DLBCL patients): (0%) | Best Response SD ([2]; DLBCL patients): (0%) | ORR (CR + PR) ([2]; DLBCL patients): (25%) | Best Response CR [2, 12]: 1/4 | Best Response PD [2, 12]: 3/4 | Best Response PR [2, 12]: 0/4 | Best Response SD [2, 12]: 0/4 | ORR (CR + PR) [2, 12]: 1/4 | Best Response CR ([2]; Hairy Cell Leukemia patients): (0%) | Best Response PD ([2]; Hairy Cell Leukemia patients): (0%) | Best Response PR ([2]; Hairy Cell Leukemia patients): (100%) | Best Response SD ([2]; Hairy Cell Leukemia patients): (0%) | ORR (CR + PR) ([2]; Hairy Cell Leukemia patients): (100%) | Best Response CR [2, 13]: 0/1 | Best Response PD [2, 13]: 0/1 | Best Response PR [2, 13]: 1/1 | Best Response SD [2, 13]: 0/1 | ORR (CR + PR) [2, 13]: 1/1 | Best Response CR ([2]; Indolent NHL patients): (0%) | Best Response PD ([2]; Indolent NHL patients): (0%) | Best Response PR ([2]; Indolent NHL patients): (0%) | Best Response SD ([2]; Indolent NHL patients): (100%) | ORR (CR + PR) ([2]; Indolent NHL patients): (0%) | Best Response CR [2, 14]: 0/2 | Best Response PD [2, 14]: 0/2 | Best Response PR [2, 14]: 0/2 | Best Response SD [2, 14]: 2/2 | ORR (CR + PR) [2, 14]: 0/2 | Best Response CR ([2]; Mantle Cell Lymphoma patients): (20%) | Best Response PD ([2]; Mantle Cell Lymphoma patients): (10%) | Best Response PR ([2]; Mantle Cell Lymphoma patients): (60%) | Best Response SD ([2]; Mantle Cell Lymphoma patients): (10%) | ORR (CR + PR) ([2]; Mantle Cell Lymphoma patients): (80%) | Best Response CR [2, 15]: 2/10 | Best Response PD [2, 15]: 1/10 | Best Response PR [2, 15]: 6/10 | Best Response SD [2, 15]: 1/10 | ORR (CR + PR) [2, 15]: 8/10 | Best Response CR [2, 16]: (0%) | Best Response PD [2, 16]: (14%) | Best Response SD [2, 16]: (0%) | ORR (CR + PR) [2, 16]: (86%) | Best Response PR ([2]; Waldenström's Macroglobulinemia patients, includes one patient with VGPR): (86%) | Best Response CR [2, 17]: 0/7 | Best Response PD [2, 17]: 1/7 | Best Response SD [2, 17]: 0/7 | ORR (CR + PR) [2, 17]: 6/7 | Best Response PR ([2]; Waldenström's Macroglobulinemia patients, number of patients/total, includes one patient with VGPR): 6/7^2 | ≥Grade 3 AEs assessed as possibly drug-related ([2]; all self-limited neutropenia): 4 | patients who died during study ([2]; disease progression or its complications): 3 | drug-related serious adverse events (SAEs) ([2]; human, in vivo): no drug-related serious adverse events | number of ≥Grade 3 AEs ([2]; human, in vivo): 19 | major hemorrhage ([2]; not considered drug-related): one case | patients remaining on study treatment, free of progression ([2]; of the 39 patients): 31 | level in brain tissue ([3]; brain): low in brain tissue | tissue distribution ([3]; various tissues): widely distributed to various tissues | inhibition of rituximab-induced ADCC compared with ibrutinib [4]: significantly less inhibition

C=CC(=O)N1CCC([C@@H]2CCNc3c(C(N)=O)c(-c4ccc(Oc5ccccc5)cc4)nn32)CC1 [Crystalline Form A, (S)-7-(1-acryloylpiperidin-4-yl)-2-(4-phenoxyphenyl)-4,5,6,7-tetra-hydropyrazolo[1,5-a]pyrimidine-3-carboxamide]
IC50 [5]: 0.54 nM | IC50 [6]: 20 nM | increase of mass (DVS) [7]: about 0.8%
